# Laboratory results published in patent publication US11192902B1, “Heterocyclic diazenyl pyridinone copper(II) complexes as pharmacological antitumor agents” (King Abdulaziz University, priority 2020, dated 2021).
# Legend:
# [1] = tested on: MCF-7 human breast adenocarcinoma cells; test: Cytotoxicity against MCF-7 human breast adenocarcinoma cells (MTT); assay type: cell-based; conditions: MCF-7 cells, 48 hrs
# [2] = tested on: human primary hepatocytes THLE-2 (normal cell line); test: Cytotoxic activity test on normal cell line THLE-2 (MTT assay); assay type: cell-based
# Protocol: The samples were tested against the human primary hepatocytes THLE-2 (normal cell line, ATCC). Cells were maintained at sub-confluency at 37° C. in humidified air containing 5% CO2. The samples' concentrations ranged between (100 to 0.78 μg/ml) and the MTT assay was used to assess cell death.
smiles,measurement,setting,value
CCCCCCn1c([O-])c(N=Nc2ccc(C)cc2)c(C)c(C#N)c1=O.CCCCCCn1c([O-])c(N=Nc2ccc(C)cc2)c(C)c(C#N)c1=O.[Cu+2] [D4],"Mean IC50, MCF-7 human breast adenocarcinoma cells",[1],83.72 µg/mL
same,"Mean IC50, THLE-2 human normal hepatocytes","[2]; THLE-2 cells, 48 hrs, MTT, 100 to 0.78 μg/ml, mean",169.76 μg/mL
same,effect on the normal cell line (safety),"[2]; THLE-2 normal cell line, at the high concentration of 100 ppm",safe
